Results published in US8044100B2, “Methods and compositions for treating amyloid-related diseases” (Bellus Health Inc., priority 2004, dated 2011).

Tested on: Aβ peptides (Aβ40, Aβ42) in the plasma and brain of TgCRND8 mice
Assay: Short term treatment (14 or 28 days) in TgCRND8 mice: Aβ levels in plasma and brain by ELISA;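 as to Aβ40 Change Insoluble: symbols grade percent change in Aβ versus untreated control with plus for increase and minus for decrease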;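 as to Aβ40 Change Soluble: symbols grade percent change in Aβ versus untreated control with plus for increase and minus for decrease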;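 as to Aβ42 Change Insoluble: symbols grade percent change in Aβ versus untreated control with plus for increase and minus for decrease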
Format: in vivo, mouse
Conditions: for Aβ40 Change / Aβ42 Change: plasma
Procedure: The short term therapeutic effect of 19 compounds of the invention was studied. These compounds were administered over a 14 or 28 day period at the end of which the levels of Aβ peptides in the plasma and brain of TgCRND8 animals were determined.
Male and female transgenic mice from the 3rd and 4th B6C3F1 generations were used in this example and given daily subcutaneous or oral administrations of one of a series of compounds for 14 or 28 days. The following abbreviations are used to designate these animals from the 3rd and 4th generation backcross in the present protocol: TgCRND8-2.B6C3F1(N3); TgCRND8-2.B6C3F1 (N4).
Baseline animals (Group 1) consisted of naive TgCRND8-2. B6C3F1(N3) at 11±1 weeks of age. These mice were used to determine the Aβ levels in the plasma and brain of naive transgenic animals at the initiation of treatment.
Starting at 11 weeks of age (±1 week) animals received daily administration of their respective treatment for a period of 14 or 28 days (groups 2-21), at a dose of 250 mg/kg at 10 ml/kg or of vehicle only (water; group 2) or 1% methyl cellulose only (group 21). The route of administration was subcutaneous for water-soluble compounds and oral for compounds solubilized in methylcellulose 1%. (MC 1%). At the end of the treatment periods, plasma and perfused brains were collected for quantification of Aβ levels.
At 11±1 weeks of age for the Baseline group, and at the end of the treatment period (14 or 28 days) for Groups 2 to 21, at 24 hours after the last compound administration animals were sacrificed and samples collected. An approximate blood volume of 500 μl was collected from the orbital sinus and kept on ice until centrifugation at 4° C. at a minimum speed of 3,000 rpm for 10 minutes. Plasma samples were immediately frozen and stored at −80° C. pending analysis. The brains were removed, frozen, and stored at −80° C. awaiting analysis.
Brains were weighted frozen and homogenized with 4 volumes of ice cold 50 mM Tris-Cl pH 8.0 buffer with protease inhibitor cocktail (4 mL of buffer for 1 g of wet brain). Samples were spun at 15000 g for 20 minutes and the supernatants were transferred to fresh tubes. One hundred fifty (150) μl from each supernatant were mixed with 250 μl of 8M guanidine-HCL/50 mM Tris-HCL pH 8.0 (ratio of 0.6 vol supernatant:1 vol 8M guanidium/Tris-HCL 50 mM pH8.0) and 400 μL 5 M guanidium/Tris-HCL 50 mM pH8.0 were added. The tubes were vortexed for 30 seconds and frozen at −80° C. In parallel, pellets were treated with 7 volumes of 5 M guanidine-HCL/50 mM Tris-HCL pH 8.0 (7 mL of guanidine for 1 g of wet brain), vortexed for 30 seconds and frozen at −80° C. Samples were thawed at room temperature, sonicated at 80° C. for 15 minutes and frozen again. This cycle was repeated 3 times to ensure homogeneity and samples were returned to −80° C. pending analysis.
Aβ levels were evaluated in plasma and brain samples by ELISA using Human Aβ40 and Aβ42 Fluorometric ELISA kits from Biosource (Cat. No. 89-344 and 89-348) according to manufacturer's recommended procedures. In short, samples were thawed at room temperature, sonicated for 5 minutes at 80° C. (sonication for brain homogenates; no sonication for plasma samples) and kept on ice. Aβ peptides were captured using 100 μl of the diluted samples to the plate and incubated without shaking at 4° C. overnight. The samples were aspirated and the wells were rinsed 4 times with wash buffer obtained from the Biosource ELISA kit. The anti-Aβ40 or anti-Aβ42 rabbit polyclonal antiserum (specific for the Aβ40 or Aβ42 peptide) was added (100 μl) and the plate was incubated at room temperature for 2 hours with shaking. The wells were aspirated and washed 4 times before adding 100 μl of the alkaline phosphatase labeled anti-rabbit antibody and incubating at room temperature for 2 hours with shaking. The plates were then rinsed 5 times and the fluorescent substrate (100 μl) was added to the plate. […]

[1] = brain homogenate, Day 14, vehicle group, 250 mg/kg daily
[2] = brain homogenate, Day 28, vehicle group, 250 mg/kg daily
[3] = Day 14, vehicle (water) group, 250 mg/kg daily subcutaneous
[4] = Day 28, vehicle (water) group, 250 mg/kg daily subcutaneous
[5] = brain homogenate, Day 14, methylcellulose group, daily oral
[6] = brain homogenate, Day 28, methylcellulose group, daily oral
[7] = brain homogenate, Day 28, vehicle group, 250 mg/kg daily, total, not soluble/insoluble

Row | Compound | Aβ40 Change Insoluble [1] | Aβ40 Change Insoluble [2] | Aβ40 Change Soluble [2] | Aβ42 Change Insoluble [2] | Aβ42 Change Soluble [2] | Aβ42 Change Insoluble [1] | Aβ42 Change Soluble [1] | also measured
1 | CC1CC(NCCCS(=O)(=O)O)CC(C)(C)C1 (centres unmarked) [ED] | + (increases in the levels of Aβ (relative to untreated control) of 20 to 39%) | −− (decreases of 20 to 38%) | − (Decreases in the levels of Aβ of 5 to 19%) | − (Decreases in the levels of Aβ of 5 to 19%) | − (Decreases in the levels of Aβ of 5 to 19%) | – | – | Aβ40 Change Soluble [1]: − (Decreases in the levels of Aβ of 5 to 19%)
2 | CC(C)(CO)NCCCS(=O)(=O)O [DH] | −− (decreases of 20 to 38%) | − (Decreases in the levels of Aβ of 5 to 19%) | – | − (Decreases in the levels of Aβ of 5 to 19%) | – | −−− (decreases of 39% or more) | −−− (decreases of 39% or more) | –
3 | O=S(=O)(O)CC(O)CNC1CCCCC1 (centres unmarked) [DC] | −− (decreases of 20 to 38%) | + (increases in the levels of Aβ (relative to untreated control) of 20 to 39%) | − (Decreases in the levels of Aβ of 5 to 19%) | +++ (increases of 70% or higher) | ++ (increases of 40 to 69%) | −− (decreases of 20 to 38%) | + (increases in the levels of Aβ (relative to untreated control) of 20 to 39%) | Aβ40 Change [3]: ++ (increases of 40 to 69%); Aβ42 Change [3]: ++ (increases of 40 to 69%); Aβ40 Change [4]: ++ (increases of 40 to 69%)
4 | COc1ccc([C@H](C)NCCCS(=O)(=O)O)cc1 [DZ] | – | −− (decreases of 20 to 38%) | − (Decreases in the levels of Aβ of 5 to 19%) | −− (decreases of 20 to 38%) | −− (decreases of 20 to 38%) | −− (decreases of 20 to 38%) | – | –
5 | CCC(CC)NCCCS(=O)(=O)O [DD] | − (Decreases in the levels of Aβ of 5 to 19%) | − (Decreases in the levels of Aβ of 5 to 19%) | – | – | – | – | – | –
6 | CC(C)(NCCCS(=O)(=O)O)c1ccccc1 [DM] | + (increases in the levels of Aβ (relative to untreated control) of 20 to 39%) | −− (decreases of 20 to 38%) | − (Decreases in the levels of Aβ of 5 to 19%) | −− (decreases of 20 to 38%) | −− (decreases of 20 to 38%) | − (Decreases in the levels of Aβ of 5 to 19%) | − (Decreases in the levels of Aβ of 5 to 19%) | –
7 | COC[C@H](NCCCS(=O)(=O)O)[C@@H](O)c1ccccc1 [EG] | −− (decreases of 20 to 38%) | −− (decreases of 20 to 38%) | – | −− (decreases of 20 to 38%) | – | −− (decreases of 20 to 38%) | −− (decreases of 20 to 38%) | Aβ40 Change Soluble [1]: − (Decreases in the levels of Aβ of 5 to 19%)
8 | C#CC1(NCCCS(=O)(=O)O)CCCCC1 [DX] | −− (decreases of 20 to 38%) | −− (decreases of 20 to 38%) | – | −− (decreases of 20 to 38%) | − (Decreases in the levels of Aβ of 5 to 19%) | − (Decreases in the levels of Aβ of 5 to 19%) | – | –
9 | CC12CC3CC(C)(C1)CC(NCCCS(=O)(=O)O)(C3)C2 [CY] | – | – | – | – | – | – | – | Aβ40 Change Soluble [5]: − (Decreases in the levels of Aβ of 5 to 19%); Aβ42 Change Insoluble [5]: ++ (increases of 40 to 69%); Aβ42 Change Soluble [5]: +++ (increases of 70% or higher); Aβ40 Change Insoluble [6]: +++ (increases of 70% or higher); Aβ40 Change Soluble [6]: ++ (increases of 40 to 69%); Aβ42 Change Insoluble [6]: + (increases in the levels of Aβ (relative to untreated control) of 20 to 39%); Aβ42 Change Soluble [6]: +++ (increases of 70% or higher); Aβ42 Change (Day 28, methylcellulose group, daily oral): + (increases in the levels of Aβ (relative to untreated control) of 20 to 39%)
10 | CCNCCCS(=O)(=O)O [CV] | – | – | – | – | – | – | – | Aβ40 Change (total level) (brain homogenate, Day 14, vehicle group, 250 mg/kg daily, total, not soluble/insoluble): − (Decreases in the levels of Aβ of 5 to 19%); Aβ40 Change (total level) [7]: ++ (increases of 40 to 69%); Aβ42 Change (total level) [7]: +++ (increases of 70% or higher); Aβ40 Change [3]: + (increases in the levels of Aβ (relative to untreated control) of 20 to 39%); Aβ42 Change [3]: ++ (increases of 40 to 69%); Aβ40 Change [4]: ++ (increases of 40 to 69%); Aβ42 Change [4]: ++ (increases of 40 to 69%)
11 | O=S(=O)(O)CCCNC1CC2CCC1C2 (centres unmarked) [BY] | +++ (increases of 70% or higher) | +++ (increases of 70% or higher) | + (increases in the levels of Aβ (relative to untreated control) of 20 to 39%) | +++ (increases of 70% or higher) | – | – | +++ (increases of 70% or higher) | Aβ40 Change Soluble [1]: +++ (increases of 70% or higher); Aβ40 Change [3]: + (increases in the levels of Aβ (relative to untreated control) of 20 to 39%); Aβ42 Change [3]: + (increases in the levels of Aβ (relative to untreated control) of 20 to 39%)
12 | O=S(=O)(O)CCCNCC(O)c1ccccc1 (centres unmarked) [DY] | −− (decreases of 20 to 38%) | −−− (decreases of 39% or more) | – | −− (decreases of 20 to 38%) | − (Decreases in the levels of Aβ of 5 to 19%) | −− (decreases of 20 to 38%) | – | –
